{"source": "patent US20240148740A1", "about": "“COMBINATION OF AN AHR INHIBITOR WITH A PDX INHIBITOR OR DOXORUBICINE” (Ikena Oncology, Inc., priority 2020, published 2024)", "key": {"[1]": {"assay": "Phase 1 study, interim cohort pharmacokinetics", "type": "in vivo, human", "settings": "for dose proportionality of PK: Cycle 2 Day 1 (C2D1); for exposure with increase in dose: interim cohort PK", "experimental": "Serial blood samples are obtained to characterize the plasma PK of Compound A and its major active metabolites. The initial sampling strategy is based on the predicted human PK of this compound. If in the course of evaluating the PK, it is determined that an alternative sampling scheme would be more informative, then that alternative sampling scheme can be implemented if the total amount of blood and blood draws obtained for PK is not increased. Moreover, the total number of samples can be decreased at any time if the initial sampling scheme is considered unnecessarily intensive."}, "[2]": {"settings": "cited from earlier work"}, "[3]": {"test_system": "CMV specific memory T cells", "settings": "versus isotype-matched control, dose-dependent; cited from earlier work"}, "NSCLC [4]": {"test_system": "NSCLC", "settings": "cited from earlier work"}, "PD-1 pathway": {"test_system": "PD-1 pathway", "settings": "cited from earlier work"}, "advanced NSCLC": {"test_system": "advanced NSCLC", "settings": "cited from earlier work"}, "NSCLC [5]": {"test_system": "NSCLC", "settings": "cited from earlier work", "remark": "listed apart in the source"}, "advanced melanoma": {"test_system": "advanced melanoma", "settings": "median follow-up 9 months after completion of 2 years of pembrolizumab; cited from earlier work"}, "[6]": {"test_system": "PD-L1-positive, advanced NSCLC", "settings": "cited from earlier work"}}, "note": "Read-outs that look alike come from different tables or passages of the source."}
{"molecule": "CC(C)(O)c1cnn2c(N[C@@H]3CCc4[nH]c5ccccc5c4C3)nc(-c3cncc(F)c3)nc12", "note": "[Compound B]", "values": [{"measurement": "ratio of Compound B to Compound A", "setting": "[1]; C2D1, 400 mg and 800 mg dose", "result": "1.3-1.4 x parent"}, {"measurement": "Compound B metabolite ratio", "setting": "[1]; C2D1, cohorts above 200 mg", "result": "increased"}, {"measurement": "dose proportionality of PK", "setting": "[1]", "result": "greater than dose proportional"}, {"measurement": "accumulation with repeat dosing", "setting": "[1]; above 200 mg", "result": "Accumulation"}, {"measurement": "exposure with increase in dose", "setting": "[1]", "result": "Increased exposure with increase in dose"}, {"measurement": "AUC relative to Compound A", "setting": "[1]; repeated dosing, 2/3 subjects at 400 and 800 mg", "result": "greater than Compound A"}]}
{"molecule": "C=C(C)c1cnn2c(N[C@@H]3CCc4[nH]c5ccccc5c4C3)nc(-c3cncc(F)c3)nc12", "note": "[Compound C]", "values": [{"measurement": "ratio of Compound C to Compound A (AUC)", "setting": "[1]; 400 mg and 800 mg dose", "result": "15-20 % of parent"}, {"measurement": "dose proportionality of PK", "setting": "[1]", "result": "greater than dose proportional"}, {"measurement": "exposure with increase in dose", "setting": "[1]", "result": "Increased exposure with increase in dose"}]}
{"molecule": "ipilimumab: drug combined with nivolumab; comparator in Keynote-006", "values": [{"measurement": "effect on the clearance of ipilimumab", "setting": "[2]; nivolumab in combination with ipilimumab", "result": "no effect"}]}
{"molecule": "nivolumab: human monoclonal antibody (IgG4 kappa immunoglobulin) that blocks the interaction between PD-1 and its ligands", "values": [{"measurement": "IFN-γ secretion from CMV specific memory T cells", "setting": "[3]", "result": "augmented IFN-γ secretion"}, {"measurement": "subjects alive >5 years and progression-free without subsequent therapy", "setting": "NSCLC [4]; among 16 NSCLC subjects who discontinued after 2 years of treatment", "result": 12, "unit": "subjects"}, {"measurement": "OS rate", "setting": "NSCLC [4]; at 2 years", "result": 25, "unit": "%"}, {"measurement": "OS rate", "setting": "NSCLC [4]; at 3 years", "result": 18, "unit": "%"}, {"measurement": "proliferation and IFN-γ release in the MLR", "setting": "PD-1 pathway", "result": "reproducible enhancement"}, {"measurement": "OS HR, continued treatment", "setting": "advanced NSCLC; median follow-up 14.9 months post-randomization", "result": 0.63}, {"measurement": "PFS HR, continue versus stop treatment", "setting": "advanced NSCLC; post-randomization after 1 year of nivolumab", "result": 0.42}, {"measurement": "median PFS (post-randomization)", "setting": "advanced NSCLC; randomized to continue nivolumab", "result": "not reached"}, {"measurement": "median PFS (post-randomization)", "setting": "advanced NSCLC; randomized to stop treatment", "result": 10.3, "unit": "months"}, {"measurement": "2 year OS rate", "setting": "NSCLC [5]; non-squamous NSCLC", "result": 29, "unit": "%"}, {"measurement": "2 year OS rate", "setting": "NSCLC [5]; squamous NSCLC", "result": 23, "unit": "%"}, {"measurement": "3 year OS rates", "setting": "NSCLC [5]; squamous and non-squamous NSCLC", "result": "16%-18%"}, {"measurement": "systemic accumulation", "setting": "[2]; 3 mg/kg Q2W", "result": "approximately 3 fold"}, {"measurement": "time to steady-state concentrations", "setting": "[2]; 3 mg/kg Q2W", "result": "≤ 12", "unit": "weeks"}, {"measurement": "exposure versus dose", "setting": "[2]; 0.1 to 10 mg/kg every 2 weeks", "result": "increased dose proportionally"}, {"measurement": "geometric mean clearance (CL)", "setting": "[2]; 0.1 to 10 mg/kg, single or multiple doses", "result": 9.5, "unit": "mL/h"}, {"measurement": "geometric mean elimination half-life (t½)", "setting": "[2]; 0.1 to 10 mg/kg", "result": 26.7, "unit": "days"}, {"measurement": "geometric mean volume of distribution at steady state (Vss)", "setting": "[2]; 0.1 to 10 mg/kg", "result": 8.0, "unit": "L"}, {"measurement": "increase of CL of nivolumab", "setting": "[2]; in combination with ipilimumab", "result": 24, "unit": "%"}]}
{"molecule": "pembrolizumab", "values": [{"measurement": "estimated risk of progression or death", "setting": "advanced melanoma", "result": 9, "unit": "%"}, {"measurement": "patients with confirmed progression after stopping at 2 years", "setting": "[6]; 47 patients who completed 2 years", "result": 4, "unit": "%"}, {"measurement": "OS hazard ratio (HR) compared to docetaxel", "setting": "[6]; pembrolizumab 2 mg/kg every 3 weeks", "result": 0.72}, {"measurement": "OS hazard ratio (HR) compared to docetaxel", "setting": "[6]; pembrolizumab 10 mg/kg every 3 weeks", "result": 0.60}]}
